In patent publication US11198686B2, “Crystal form and salt form of pyridone compound and preparation method therefor” (GUANGZHOU JOYO PHARMATECH CO., LTD., priority 2017, dated 2021):
Converted amounts (≈) assume the structure as drawn. Blank lines part the entries; values can stand above or below the compound they belong to.

Assays:
[1] = Solid-state stability test of crystal form A under high temperature and high humidity (HPLC, XRPD); assay type: physicochemical; settings: for Appearance / Crystal form / Purity / Total impurities: open
Description: 16 samples of 10 mg of crystal form A were weighed in parallel and spread evenly on the bottom of glass bottles, and 8 samples of 20 mg of crystal form A were spread out into a thin layer. All sample bottles were sealed with aluminum foil, and some small holes were punched on the aluminum foil to allow the samples to fully contact with the ambient air. The samples were placed at 40° C./75% RH and 60° C./75% RH for 1 month, 2 months and 3 months, respectively.
Analytical method: Agilent 1260 HPLC with DAD detector or Waters 2695 HPLC with PDA detector was used: column: Waters Atlantis dC18 (4.6 mm×150 mm, 3.0 μm); column temperature: 40° C.; flow rate: 1.0 mL/min; detection wavelength: 230 nm; injection volume: 10 μL; sample concentration: 0.5 mg/mL; diluent: acetonitrile:water=1:1 (v/v); the following mobile phase gradients were used for analysis: […]

[2] = Solid-state physical stability test of crystal form A under different temperature, humidity and light irradiation; assay type: physicochemical; settings: for Appearance / Crystal form: 10 d
Description: 4 samples of 100 mg of crystal form A solid were weighed in parallel and spread evenly on the bottom of the glass bottles into a thin layer. The bottles were sealed with aluminum foil, and some small holes were punched on the aluminum foil to allow the sample to be fully in contact with the ambient air. The 4 samples prepared were placed under the conditions of 25° C./92.5% RH, 60° C., 40° C./75% RH and light irradiation, and the physical stability of the samples on the 10th day was examined. In the meantime, about 100 mg of crystal form A solid was weighed separately, placed on the bottom of a glass sample bottle, sealed with a screw cap and stored at −20° C., this sample was used as the control sample. On the 10th day, all samples were taken out, and returned to room temperature. The appearance change of the samples was observed, and XRPD was used to detect the crystal form of the samples. By comparing the accelerated samples with the control sample, the solid-state physical stability of crystal form A of Compound 1 was determined.

[3] = Study on polymorphism of Compound 1 (suspension in solvents, XRPD); assay type: physicochemical; settings: for Crystal form: 40° C., 2 days
Description: Approximate 50 mg of the sample were weighed and added to separate 4.0 mL glass vials, respectively, followed by addition of an appropriate amount of the solvents or solvent mixture (see the table below) to give a suspension. After shaking at 40° C. for 2 days, all the samples were taken out and centrifuged in a centrifuge at 8000 r/min for 5 minutes. The supernatant was discarded, and the remaining solid was dried in a 35° C. vacuum drying box for two days. The dried samples were taken out for XRPD detection.

[4] = Approximate solubility of crystal form A in different solvents (manual stepwise dilution); assay type: physicochemical; settings: thermodynamic from solid, ambient temperature
Description: In this study, the method of manual stepwise dilution along with the observation of the dissolution under ambient temperature condition was used for determination. About 2 mg of crystal form A of Compound 1 was added to separate HPLC vials, followed by multiple addition of organic solvents or the mixed solvents (Table 5) in a small amount, and the dissolution of the compound was monitored.

[5] = system: TNF-α; test: Ex-vivo effect on endotoxin LPS-induced TNF-α in rat blood (ELISA); assay type: cell-based, Sprague Dawley rats
Description: Experimental objective: testing the effect of Compound 1 on bacterial lipopolysaccharide (LPS)-induced TNF-α in rat blood to evaluate the anti-inflammatory effect ex-vivo
Sprague Dawley rats (male, 280-310 g, Shanghai Slac Laboratory Animal CO. LTD)
Rat TNF-alpha Quantikine ELISA Kit (R&D, #SRTA00)
A solution of the compound was prepared (5 mM or 1 mM), and 40 μL of the prepared solution was added into a 48-well cell culture plate, respectively (the final concentration of the compounds was 0.5 or 0.1 mM). The rats were anaesthetized with isoflurane and the blood was collected from the abdominal aorta (Heparin anticoagulant). The blood was added into the 48-well cell culture plate (320 μL per well) containing the compounds to be tested. Afterwards, the 48-well cell culture plate was incubated at 37° C. for 30 minutes. Then the plate was taken out, and 40 μL of LPS (the final concentration was 100 μg/mL) was added and mixed evenly. The resulting mixture was incubated at 37° C. After 5 hours, the 48-well plate was taken out and the blood was transferred into 1.5 mL centrifuge tubes and centrifuged in a centrifuge (4,500 rpm, 4° C., 5 min). The supernatant was isolated to obtain the plasma, which was aliquoted (20 μL per well) into a 96-well sample plate, and then sharp-frozen and preserved in a refrigerator (−80° C.). On the second day, the TNF-α level in the plasma samples was determined by using R&D ELISA kits according to the kit specification. The data was analyzed by EXCEL and Prism.

[6] = system: idiopathic pulmonary fibrosis; test: SD rat left unilateral pulmonary fibrosis model; assay type: in vivo

Appearance ([1]; 40° C./75% RH, 1 M): White powder | Crystal form ([1]; 40° C./75% RH, 1 M): Form A | Purity ([1]; 40° C./75% RH, 1 M): 99.949% | Total impurities ([1]; 40° C./75% RH, 1 M): 0.051% | Appearance ([1]; 40° C./75% RH, 2 M): White powder | Crystal form ([1]; 40° C./75% RH, 2 M): Form A | Purity ([1]; 40° C./75% RH, 2 M): 99.948% | Total impurities ([1]; 40° C./75% RH, 2 M): 0.052% | Appearance ([1]; 40° C./75% RH, 3 M): White powder | Crystal form ([1]; 40° C./75% RH, 3 M): Form A | Purity ([1]; 40° C./75% RH, 3 M): 99.947% | Total impurities ([1]; 40° C./75% RH, 3 M): 0.053% | Appearance ([1]; 60° C./75% RH, 1 M): White powder | Crystal form ([1]; 60° C./75% RH, 1 M): Form A | Purity ([1]; 60° C./75% RH, 1 M): 99.949% | Total impurities ([1]; 60° C./75% RH, 1 M): 0.051% | Appearance ([1]; 60° C./75% RH, 2 M): White powder | Crystal form ([1]; 60° C./75% RH, 2 M): Form A | Purity ([1]; 60° C./75% RH, 2 M): 99.948% | Total impurities ([1]; 60° C./75% RH, 2 M): 0.052% | Appearance ([1]; 60° C./75% RH, 3 M): White powder | Crystal form ([1]; 60° C./75% RH, 3 M): Form A | Purity ([1]; 60° C./75% RH, 3 M): 99.950% | Total impurities ([1]; 60° C./75% RH, 3 M): 0.050% | Solid-state stability (conclusion) ([1]; within three months, 40° C./75% RH and 60° C./75% RH): stable | Appearance ([2]; 25° C./92.5% RH (open)): White | Crystal form ([2]; 25° C./92.5% RH (open)): Form A | Appearance ([2]; 40° C./75% RH (open)): White | Crystal form ([2]; 40° C./75% RH (open)): Form A | Appearance ([2]; 60° C. (open)): White | Crystal form ([2]; 60° C. (open)): Form A | Appearance ([2]; Light irradiation): White | Crystal form ([2]; Light irradiation): Form A | Solid-state physical stability (conclusion) ([2]; within 10 days under each condition): stable | Stability of crystal form in solvents (conclusion) ([3]; under the conditions of the solvents of Table 4): stable | solubility ([4]; aqueous with cosolvent or surfactant or cyclodextrin, Acetone-water (1:2)): 52 to 103 mg/mL (≈ 210 to 416 mM) | solubility ([4]; aqueous with cosolvent or surfactant or cyclodextrin, Acetonitrile-water (1:1)): > 100 mg/mL | solubility ([4]; aqueous with cosolvent or surfactant or cyclodextrin, Ethanol-water (1:1)): > 100 mg/mL | solubility ([4]; aqueous with cosolvent or surfactant or cyclodextrin, Ethanol-water (3:1)): > 104 mg/mL | solubility ([4]; aqueous with cosolvent or surfactant or cyclodextrin, Isopropanol-water (1:1)): > 102 mg/mL | solubility ([4]; aqueous with cosolvent or surfactant or cyclodextrin, Methanol-water (1:1)): > 102 mg/mL | solubility ([4]; aqueous with cosolvent or surfactant or cyclodextrin, Methanol-water (3:1)): > 104 mg/mL | solubility ([4]; organic solvent or mixture, 1,4-dioxane): > 102 mg/mL | solubility ([4]; organic solvent or mixture, 2-Methyltetrahydrofuran): 34 to 51 mg/mL (≈ 137 to 206 mM) | solubility ([4]; organic solvent or mixture, Acetone): 52 to 103 mg/mL (≈ 210 to 416 mM) | solubility ([4]; organic solvent or mixture, Acetonitrile): > 100 mg/mL | solubility ([4]; organic solvent or mixture, Cyclohexane): < 2 mg/mL | solubility ([4]; organic solvent or mixture, Ethanol): 51 to 102 mg/mL (≈ 206 to 412 mM) | solubility ([4]; organic solvent or mixture, Ethyl acetate): 34 to 51 mg/mL (≈ 137 to 206 mM) | solubility ([4]; organic solvent or mixture, Heptane): < 2 mg/mL | solubility ([4]; organic solvent or mixture, Isopropanol): 34 to 52 mg/mL (≈ 137 to 210 mM) | solubility ([4]; organic solvent or mixture, Isopropyl acetate): 20 to 34 mg/mL (≈ 80.9 to 137 mM) | solubility ([4]; organic solvent or mixture, Methanol): > 104 mg/mL | solubility ([4]; organic solvent or mixture, Methyl ethyl ketone): 52 to 104 mg/mL (≈ 210 to 421 mM) | solubility ([4]; organic solvent or mixture, Methyl isobutyl ketone): 34 to 51 mg/mL (≈ 137 to 206 mM) | solubility ([4]; organic solvent or mixture, Methyl tert-butyl ether): < 2 mg/mL | solubility ([4]; organic solvent or mixture, Tetrahydrofuran): 51 to 102 mg/mL (≈ 206 to 412 mM) | solubility ([4]; organic solvent or mixture, Toluene): 35 to 52 mg/mL (≈ 142 to 210 mM) | solubility ([4]; organic solvent or mixture, n-butanol): 50 to 100 mg/mL (≈ 202 to 404 mM) | solubility ([4]; Water): 10 to 21 mg/mL (≈ 40.4 to 84.9 mM)
SMILES: CC1(c2ccc(=O)n(-c3ccsc3)c2)COC1 [crystal form A]
Inhibitory effect on TNF-α level induced by LPS (in words) ([5]; final concentration 0.1 mM, inhibition significantly higher than Pirfenidone): significant inhibitory effect | inhibition at 100 µM ([5]; rat blood, LPS 100 μg/mL, compound 0.1 mM): 80.8% | Inhibitory effect on idiopathic pulmonary fibrosis (in words) [6]: significant inhibitory effect

SMILES: Cc1ccc(=O)n(-c2ccccc2)c1 [Pirfenidone (PFD), Pirfenidone, reference compound]
inhibition at 500 µM ([5]; rat blood, LPS 100 μg/mL, compound 0.5 mM): 53.5%

Crystal form ([3]; suspension in Acetone): Form A | Crystal form ([3]; suspension in Acetone:Water (1:2)): Form A | Crystal form ([3]; suspension in Acetonitrile): Form A | Crystal form ([3]; suspension in Ethanol): Form A | Crystal form ([3]; suspension in Ethyl acetate): Form A | Crystal form ([3]; suspension in Water): Form A
SMILES: CC1(c2ccc(=O)n(-c3ccsc3)c2)COC1 [Compound 1]
